The values that follow are results of earlier work, collected in patent US4707498A, “Fluorinated diaminoalkyne derivatives” (Merrell Dow Pharmaceuticals Inc., priority 1986, dated 1987).

The data set relates to tumor. As to conditions: MGBG intravenously once or twice week.

As to `CC(C=NNC(=N)N)=NNC(=N)N` [MGBG, methylglyoxal bis(guanylhydrazone)], under “65 treated patients”, the “complete disappearance of the disease (number of treated patients)” value is “two of the 65”. Besides, where the note is “patients in advanced stages of carcinoma, lymphoma, hepatoma, melanoma, leukemia or sarcoma”, the “regression of the tumor” value is listed as “measurable regression of the tumor in many of the patients treated”.
